Experiments:
5HT2A receptor site = target: T1, 5HT2A receptor site (Mus musculus, UniProt P35363); test: Head Twitch Assay (5-MeODMT induced head twitch); type: in vivo; settings: for ED50: mouse, sc, dose blocking 5-MeODMT (30 mg/kg i.p.) head twitch in 50% of male mice; for % effect @ 3 mg/kg: 3 mg/kg sc
T1 construct: from tissue; host or cells: live male mice (whole animal)
Description: This Example 177 illustrates the study of efficacy of the compounds of this invention at the 5HT2A receptor site in animal models.
5-MeODMT (5-Methoxy-N,N-dimethyltryptamine) Inhibition: Groups of male mice are administered test compounds at selected doses. At an appropriate interval thereafter, 5-MeODMT (dissolved in 0.5% ascorbic acid) is administered at a dose of 30 mg/kg i.p. Immediately after administration of 5-MeODMT, and continuing for the following 6 min, the number of head twitches for each animal is counted. […] The ED50 is calculated as the dose necessary to block head twitch in 50% of the test animals. All experiments are performed with at least 10 animals per condition.

human 5HT2A receptor = target: T2, human 5HT2A receptor (Homo sapiens, UniProt P28223); test: Receptor Binding Assay, 5HT2A ([3H]N-methyl spiperone); settings: BHK cells expressing human 5HT2A receptor, 2.5 nM [3H]N-methyl spiperone, 37° C.
T2 construct: expressed in transfected cells
T2 sequence (P28223 whole entry): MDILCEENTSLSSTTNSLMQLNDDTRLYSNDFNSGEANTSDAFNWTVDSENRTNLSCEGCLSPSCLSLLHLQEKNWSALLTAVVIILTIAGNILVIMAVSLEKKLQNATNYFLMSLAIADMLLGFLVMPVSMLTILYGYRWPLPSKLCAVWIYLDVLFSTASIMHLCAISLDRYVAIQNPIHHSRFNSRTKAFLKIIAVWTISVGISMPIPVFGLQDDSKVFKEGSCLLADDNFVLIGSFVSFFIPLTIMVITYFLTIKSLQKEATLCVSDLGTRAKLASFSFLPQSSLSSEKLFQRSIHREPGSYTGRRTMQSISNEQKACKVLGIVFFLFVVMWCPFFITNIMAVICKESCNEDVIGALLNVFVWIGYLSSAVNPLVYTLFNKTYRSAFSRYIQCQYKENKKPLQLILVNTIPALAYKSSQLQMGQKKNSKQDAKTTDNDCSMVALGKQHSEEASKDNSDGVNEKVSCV
Description: Cell Culture: BHK cells stably expressing the human 5HT2A receptor were maintained in Dulbecco's Modified Eagle's Medium supplemented with […] Geneticin, 1% Sodium Pyruvate, 1% Pen-Strep and 10% Fetal Calf Serum, and treated with 5 mM sodium butyrate for 24 h to increase receptor expression before harvesting. Cells were harvested by mechanical scraping, washed with Phosphate Buffered Saline, and stored at −80° C. in 10% DMSO in 1 mg/mil aliquots until used. Protein determination was made according to Lowry.
Receptor Binding Assays: The 5HT2A and D2L assays were conducted at 37° C. in a Tris buffer containing salts (50 mM Tris Buffer, pH 7.7; 120 mM NaCl; 5 mM KCl; 2 mM CaCl2; 1 mM MgCl2). Cell membranes (previously prepared and frozen) were rapidly thawed. Membranes were diluted to an appropriate concentration (to produce 100 μg protein/assay point for 5HT2A, and 58 μg protein/assay point for D2L) in Tris buffer and homogenized. Assays were conducted on 96-well plates, using 2.5 and 1 nM [^3H]N-methyl spiperone as radioligand for 5HT2A and D2L assays, respectively. Plates were incubated at 37° C. in a shaking water bath for 30 and 60 min, for 5HT2A and D2L, respectively. Nonspecific binding was defined using 100 μM methylsergide and eticlopride, for 5HT2A and D2L, respectively.
Assays were terminated by rapid filtration through Millipore MAFB or MAFC (5HT2C) filter plates (presoaked in 50 mM Tris HCl, pH 7.7, with 0.1% Brij) using a Millipore Cell Harvester. The filter plates were then washed with ice-cold 50 mM Tris buffer, pH 7.7, and allowed to dry overnight. 50 μl of Microscint scintillation cocktail were added and the plates were counted in a Packard Topcount scintillation counter.
IC50 and Ki calculations were performed using nonlinear regression one-site competition analysis (GraphPad, Prism), with top and bottom limits held constant at 0% and 100% inhibition, respectively. The percent inhibition at each drug concentration was the average of duplicate determinations. Except where indicated, each determination was performed 2 to 5 times.

T1 sequence (P35363 whole entry): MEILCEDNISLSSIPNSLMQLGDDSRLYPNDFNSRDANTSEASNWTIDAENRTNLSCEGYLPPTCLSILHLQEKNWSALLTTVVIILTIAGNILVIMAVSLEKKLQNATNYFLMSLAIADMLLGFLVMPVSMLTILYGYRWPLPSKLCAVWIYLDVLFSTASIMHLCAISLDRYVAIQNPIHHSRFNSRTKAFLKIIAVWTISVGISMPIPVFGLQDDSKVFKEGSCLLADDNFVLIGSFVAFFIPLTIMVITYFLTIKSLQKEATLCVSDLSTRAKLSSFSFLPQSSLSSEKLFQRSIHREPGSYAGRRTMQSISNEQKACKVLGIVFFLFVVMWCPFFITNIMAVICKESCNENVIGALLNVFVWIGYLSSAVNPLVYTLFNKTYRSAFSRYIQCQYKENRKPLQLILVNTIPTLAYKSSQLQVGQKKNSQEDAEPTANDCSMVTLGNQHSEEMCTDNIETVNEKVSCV

Row | Structure (SMILES) | % effect @ 1 mg/kg (5HT2A receptor site; 1 mg/kg sc, head twitch, male mice) | ED50 (5HT2A receptor site) | Ki (human 5HT2A receptor) | % effect @ 3 mg/kg (5HT2A receptor site; head twitch, male mice)
1 | CN(C)CCN(Cc1ccccc1)Cc1cccc(-c2ccc3[nH]c(=O)oc3c2)c1.Cl [Example 3] | 100% | < 1 mg/kg | 0.9 nM | –
2 | O=C(c1ccc(F)cc1)N(CCN1CCCC1)Cc1cc(-c2ccc3[nH]ccc3c2)ccc1F [Example 20, 4-Fluoro-N-[2-fluoro-5-(1H-indol-5-yl)-benzyl]-N-(2-pyrrolidin-1-yl-ethyl)-benzamide] | – | 0.27 mg/kg | 0.32 nM | –
3 | O=C(c1ccc(F)cc1)N(CCN1CCCC1)Cc1cc(-c2ccc3[nH]c(=O)oc3c2)ccc1F [Example 21] | – | < 3 mg/kg | 0.26 nM | 60%
4 | Cc1cc2cc(-c3ccc(F)c(CN(CCN(C)C)C(=O)c4ccc(F)cc4)c3)ccc2[nH]1 [Example 23] | – | 0.16 mg/kg | 0.37 nM | –
5 | CN(C)CCN(Cc1cc(-c2ccc3[nH]ccc3c2)ccc1F)C(=O)c1ccc(F)cc1 [Example 26] | – | 0.82 mg/kg | 0.68 nM | –
6 | CN1CCC(N(Cc2cccc(-c3ccc4[nH]ccc4c3)c2)C(=O)c2ccc(F)cc2)CC1 [Example 27] | – | 0.59 mg/kg | 0.7 nM | –
7 | CN1CCC(N(Cc2cc(-c3ccc4[nH]ccc4c3)ccc2F)C(=O)c2ccc(F)cc2)CC1 [Example 34] | – | 1.09 mg/kg | 1.25 nM | –
8 | Fc1ccc([C@H]2CNCCN2Cc2cc(-c3ccc4[nH]ncc4c3)ccc2F)cc1 [Example 42, {4-Fluoro-3-[2S-(4-fluoro-phenyl)-piperazin-1-ylmethyl]-phenyl}-1H-indazole] | – | 1.73 mg/kg | 0.61 nM | –
9 | CC(=O)O.Fc1ccc(-c2ccc3[nH]ncc3c2)cc1CN1CCNC[C@@H]1c1cccs1 [Example 44] | – | 0.54 mg/kg | – | –
10 | Fc1ccc(-c2ccc3[nH]ncc3c2)cc1CN1CCNCC1c1cccs1 (stereo not shown) [Example 47] | – | ~3 mg/kg | 1.24 nM | 50%
11 | CC(=O)O.CN1CCN(Cc2cncc(-c3ccc4[nH]ccc4c3)c2)[C@@H](c2ccc(F)cc2)C1 [Example 91, 5-{5-[2S-(4-Fluoro-phenyl)-4-methyl-piperazin-1-ylmethyl]-pyridin-3-yl}-1H-indole acetate] | – | 0.41 mg/kg | 0.6 nM | –
12 | CN1CCN(Cc2cc(-c3ccc4[nH]ccc4c3)ccc2F)[C@@H](c2ccc(F)cc2)C1 [Example 92, 5-{4-Fluoro-3-[2S-(4-fluoro-phenyl)-4-methyl-piperazin-1-ylmethyl]-phenyl}-1H-indole] | – | 0.53 mg/kg | – | –
13 | CN1CCN(Cc2cc(-c3ccc4[nH]ccc4c3)co2)[C@@H](c2ccc(F)cc2)C1.O=C(O)C(F)(F)F [Example 94, 5-{5-[2S-(4-Fluoro-phenyl)-4-methyl-piperazin-1-ylmethyl]-furan-3-yl}-1H-indole; compound with trifluoro-acetate] | – | ~3 mg/kg | – | 50%
14 | CC(=O)O.CN1CCN(Cc2cc(-c3ccc4[nH]c(=O)oc4c3)co2)[C@@H](c2ccc(F)cc2)C1 [Example 95, 6-{5-[2S-(4-Fluorophenyl)-4-methylpiperazine-1-ylmethyl]-furan-3-yl}-3H-benzoxazol-2-one] | – | 0.5 mg/kg | 1.9 nM | –
15 | CC(=O)O.CN1CCN(Cc2cncc(-c3ccc4[nH]c(=O)oc4c3)c2)[C@@H](c2ccc(F)cc2)C1 [Example 98, 6-{5-[2S-(4-Fluoro-phenyl)-4-methyl-piperazin-1-ylmethyl]-pyridin-3-yl}-3H-benzooxazol-2-one acetate] | – | 0.49 mg/kg | 1.2 nM | –
16 | CN(C)CCN(Cc1cc(-c2ccc3[nH]c(=O)oc3c2)ccc1F)C(=O)c1ccc(F)cc1 [Example 104, N-(2-Dimethylamino-ethyl)-4-fluoro-N-[2-fluoro-5-(2-oxo-2,3-dihydro-benzooxazol-6-yl)-benzyl]-benzamide] | – | 6.36 mg/kg | 0.31 nM | –
17 | CN1CCC(N(Cc2ccc(F)cc2)Cc2cc(-c3ccc4[nH]ncc4c3)co2)CC1 [Example 119, (4-Fluoro-benzyl)-[4-(1H-indazol-5-yl)-furan-2-ylmethyl]-(1-methyl-piperidin-4-yl)-amine] | – | – | 0.78 nM | –
18 | CN1CCN(Cc2cccc(-c3ccc4[nH]ccc4c3)c2)CC1 [Example 120, 5-[3-(4-Methyl-piperazin-1-ylmethyl)-phenyl]-1H-indole] | – | – | 65 nM | –
19 | CN1CCCN(Cc2cccc(-c3ccc4[nH]ccc4c3)c2)CC1 [Example 121, 5-[3-(4-Methyl-[1,4]diazepan-1-ylmethyl)-phenyl]-1H-indole] | – | – | 82 nM | –
20 | O=C(c1ccc(F)cc1)N(CCN1CCCC1)Cc1cc(F)cc(-c2ccc3[nH]ccc3c2)c1 [Example 133, 4-Fluoro-N-[3-fluoro-5-(1H-indol-5-yl)-benzyl]-N-(2-pyrrolidin-1-yl-ethyl)-benzamide] | – | 0.92 mg/kg | – | –
21 | CN(C)CCN(Cc1ccc(F)cc1)Cc1cc(-c2ccc3[nH]cc(C#N)c3c2)ccc1F [Example 140, 5-(3-{[(2-Dimethylamino-ethyl)-(4-fluoro-benzyl)-amino]-methyl}-4-fluoro-phenyl)-1H-indole-3-carbonitrile trifluoro-acetate] | – | – | 22.6 nM | –
22 | CC(=O)O.CN1CCN(Cc2cc(-c3ccc4[nH]ncc4c3)ccc2F)[C@@H](c2cccs2)C1 [Example 159, 5-[4-Fluoro-3-(4-methyl-2R-thiophen-2-yl-piperazin-1-ylmethyl)-phenyl]-1H-indazole acetate] | – | 0.04 mg/kg | – | –
23 | CN1CCN(Cc2cc(-c3ccc4[nH]ncc4c3)co2)[C@@H](c2ccc(F)cc2)C1 [Example 161, 5-{5-[2S-(4-Fluoro-phenyl)-4-methyl-piperazin-1-ylmethyl]-furan-3-yl}-1H-indazole] | – | 0.16 mg/kg | – | –
24 | CN1CCN(C(=O)c2cc(-c3ccc4[nH]ccc4c3)ccc2F)[C@@H](c2ccc(F)cc2)C1 [Example 171, [2-Fluoro-5-(1H-indol-5-yl)-phenyl]-[2S-(4-fluoro-phenyl)-4-methyl-piperazin-1-yl]-methanone] | – | – | 85 nM | –
25 | Fc1ccc([C@H]2CNCCN2Cc2cc(-c3ccc4[nH]ccc4c3)ccc2F)cc1 [Example 174, 5-{4-Fluoro-3-[2S-(4-fluoro-phenyl)-piperazin-1-ylmethyl]-phenyl}-1H-indole acetate] | – | – | 0.9 nM | –
26 | CN1CCN(Cc2cc(-c3ccc4[nH]cc(C#N)c4c3)ccc2F)[C@@H](c2ccc(F)cc2)C1 [Example 175, 5-{4-Fluoro-3-[2S-(4-fluoro-phenyl)-4-methyl-piperazin-1-ylmethyl]-phenyl}-1H-indole-3-carbonitrile] | – | – | 3.2 nM | –

— patent publication US7625889B2, “Substituted bis aryl and heteroaryl compounds as selective 5HT2A antagonists” (Aventis Pharmaceuticals Inc., priority 2005, dated 2009)
